From patent publication US9586951B2 (FUJIFILM Corporation, priority 2013, dated 2017) come the findings set out here.

The target in this assay is T1, ATM (Homo sapiens, UniProt Q13315).
T1 construct: detecting phosphorylation of Chk2 in a human non-small cell lung cancer cell line NCI-H460 (ATCC company); host or cells: NCI-H460 human non-small cell lung cancer cells
T1 sequence (Q13315 whole entry): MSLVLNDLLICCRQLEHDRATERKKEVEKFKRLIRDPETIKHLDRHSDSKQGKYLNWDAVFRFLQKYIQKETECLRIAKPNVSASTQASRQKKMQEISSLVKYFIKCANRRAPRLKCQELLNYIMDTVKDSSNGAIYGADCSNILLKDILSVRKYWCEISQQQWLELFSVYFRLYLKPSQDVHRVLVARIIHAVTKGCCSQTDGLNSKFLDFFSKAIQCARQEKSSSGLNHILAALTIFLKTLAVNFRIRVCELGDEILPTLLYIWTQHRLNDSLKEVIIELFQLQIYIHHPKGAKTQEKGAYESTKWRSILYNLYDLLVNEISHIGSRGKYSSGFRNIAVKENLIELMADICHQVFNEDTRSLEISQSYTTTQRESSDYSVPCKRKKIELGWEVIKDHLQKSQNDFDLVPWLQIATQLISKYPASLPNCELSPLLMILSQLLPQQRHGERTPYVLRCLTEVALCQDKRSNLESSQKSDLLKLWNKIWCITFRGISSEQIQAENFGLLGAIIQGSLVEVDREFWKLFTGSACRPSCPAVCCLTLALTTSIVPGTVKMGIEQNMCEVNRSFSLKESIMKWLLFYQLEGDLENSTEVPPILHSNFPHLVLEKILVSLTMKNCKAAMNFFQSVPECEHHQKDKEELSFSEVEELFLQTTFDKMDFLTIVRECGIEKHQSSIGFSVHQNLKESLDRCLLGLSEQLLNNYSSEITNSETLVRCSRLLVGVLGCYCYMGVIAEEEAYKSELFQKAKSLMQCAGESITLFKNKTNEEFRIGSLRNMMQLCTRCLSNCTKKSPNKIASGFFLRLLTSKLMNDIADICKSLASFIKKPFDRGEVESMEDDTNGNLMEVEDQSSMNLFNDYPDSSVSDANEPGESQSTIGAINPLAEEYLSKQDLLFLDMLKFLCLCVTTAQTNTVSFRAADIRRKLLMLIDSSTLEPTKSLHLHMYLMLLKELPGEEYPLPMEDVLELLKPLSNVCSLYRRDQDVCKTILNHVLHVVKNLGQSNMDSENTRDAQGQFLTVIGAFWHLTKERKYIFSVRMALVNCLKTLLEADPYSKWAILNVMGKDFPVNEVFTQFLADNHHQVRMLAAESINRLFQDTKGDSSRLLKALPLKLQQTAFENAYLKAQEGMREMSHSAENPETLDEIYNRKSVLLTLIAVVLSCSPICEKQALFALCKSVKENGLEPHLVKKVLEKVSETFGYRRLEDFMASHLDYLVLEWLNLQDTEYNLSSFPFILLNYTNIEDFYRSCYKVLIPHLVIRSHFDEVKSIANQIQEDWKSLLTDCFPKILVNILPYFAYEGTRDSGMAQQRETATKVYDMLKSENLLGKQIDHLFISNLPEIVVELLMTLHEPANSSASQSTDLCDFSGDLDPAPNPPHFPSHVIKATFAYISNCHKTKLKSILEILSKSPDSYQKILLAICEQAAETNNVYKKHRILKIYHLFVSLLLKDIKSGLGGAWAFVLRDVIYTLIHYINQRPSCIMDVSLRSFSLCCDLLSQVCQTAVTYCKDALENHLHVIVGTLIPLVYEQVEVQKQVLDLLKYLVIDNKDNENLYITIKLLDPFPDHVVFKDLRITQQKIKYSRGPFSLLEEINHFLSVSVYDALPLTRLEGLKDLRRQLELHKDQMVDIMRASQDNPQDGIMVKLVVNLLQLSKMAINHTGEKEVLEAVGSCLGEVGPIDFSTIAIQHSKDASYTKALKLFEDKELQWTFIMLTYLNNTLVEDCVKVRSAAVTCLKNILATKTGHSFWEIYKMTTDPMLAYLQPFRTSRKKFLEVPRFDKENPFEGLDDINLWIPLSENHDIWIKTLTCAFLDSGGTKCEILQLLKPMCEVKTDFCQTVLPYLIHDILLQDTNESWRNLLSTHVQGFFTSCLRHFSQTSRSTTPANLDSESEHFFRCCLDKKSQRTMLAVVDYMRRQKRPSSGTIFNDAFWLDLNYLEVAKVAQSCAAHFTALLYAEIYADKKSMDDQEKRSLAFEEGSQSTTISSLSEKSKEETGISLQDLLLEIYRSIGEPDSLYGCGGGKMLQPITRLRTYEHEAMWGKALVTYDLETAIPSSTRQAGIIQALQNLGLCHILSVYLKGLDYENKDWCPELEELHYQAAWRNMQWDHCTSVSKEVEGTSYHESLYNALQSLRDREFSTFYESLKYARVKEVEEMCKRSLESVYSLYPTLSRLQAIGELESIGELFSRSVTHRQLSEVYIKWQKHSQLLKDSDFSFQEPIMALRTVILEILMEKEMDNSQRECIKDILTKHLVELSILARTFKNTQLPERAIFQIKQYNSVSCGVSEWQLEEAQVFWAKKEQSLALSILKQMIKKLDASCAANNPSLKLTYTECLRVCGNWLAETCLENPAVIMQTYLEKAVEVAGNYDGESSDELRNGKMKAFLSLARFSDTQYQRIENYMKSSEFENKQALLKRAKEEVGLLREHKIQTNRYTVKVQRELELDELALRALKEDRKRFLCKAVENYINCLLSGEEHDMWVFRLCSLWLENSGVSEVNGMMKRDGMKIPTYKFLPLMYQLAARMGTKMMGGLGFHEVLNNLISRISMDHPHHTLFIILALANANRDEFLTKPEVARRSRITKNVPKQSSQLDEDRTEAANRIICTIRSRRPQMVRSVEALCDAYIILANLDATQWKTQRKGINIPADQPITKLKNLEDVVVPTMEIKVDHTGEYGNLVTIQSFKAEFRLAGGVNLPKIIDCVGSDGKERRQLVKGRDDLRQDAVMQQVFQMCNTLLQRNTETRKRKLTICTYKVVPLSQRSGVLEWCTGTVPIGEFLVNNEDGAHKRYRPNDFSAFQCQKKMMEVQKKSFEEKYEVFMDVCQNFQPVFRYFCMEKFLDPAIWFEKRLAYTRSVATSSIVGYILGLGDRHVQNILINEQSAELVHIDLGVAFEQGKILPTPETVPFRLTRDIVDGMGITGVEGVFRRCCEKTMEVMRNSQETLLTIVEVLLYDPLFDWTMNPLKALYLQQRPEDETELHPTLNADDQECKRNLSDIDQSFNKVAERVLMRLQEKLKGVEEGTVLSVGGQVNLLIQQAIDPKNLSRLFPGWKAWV
As to the kind of experiment: ATM inhibition test (phosphorylation of Chk2 generated by ionizing radiation, AlphaScreen SureFire). The following applies: phosphorylated Chk2 in NCI-H460 cells, ionizing radiation 8Gy, 1 hour after test compound treatment; read-out: ATM inhibitory activity. It is filed as cell-based. The method in brief:
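Human NCI-H460 lung cancer cells were treated with compound for 1 h, then irradiated at 8Gy and incubated 1 h at 37° C. Phospho-Chk2 was quantified by AlphaScreen SureFire; inhibition % was normalised between irradiated untreated and non-irradiated untreated wells.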
(In general: Alpha assays give light when donor and acceptor beads are brought close together.)
On to `CC(Nc1ccc2c(c1)Cc1cccc(-c3cc(N4CCOCC4)cc(=O)[nH]3)c1O2)c1nccs1` (stereo not drawn) [Example 2-14-43, 4-Morpholino-6-(7-((1-(thiazol-2-yl)ethyl)amino)-9H-xanthen-4-yl)pyridin-2 (1H)-one], for which the IC50 fell in the range of 100 to 500 nM.
The figure for `CC(=O)Nc1cncc(CNc2ccc3c(c2)Cc2cccc(-c4cc(N5CCOCC5)cc(=O)[nH]4)c2O3)c1` [Example 2-2-13, N-(5-(((5-(4-Morpholino-6-oxo-1,6-dihydropyridin-2-yl)-9H-xanthen-2-yl)amino)methyl)pyridin-3-yl)acetamide] is 500 to 2000 nM; for `O=c1cc(N2CCOCC2)cc(-c2nccc3c2Oc2ccc(NCc4cncc(Cl)c4)cc2C3)[nH]1` [Example 2-41-9, 6-(7-(((5-Chloropyridin-3-yl)methyl)amino)-5H-chromeno [2,3-c]pyridin-1-yl)-4-morpholino pyridin-2(1H)-one] it is 100 to 500 nM.
The figure for `O=c1cc(N2CCOCC2)cc(-c2cccc3c2Oc2ccc(N[C@H]4CCN(Cc5ccccc5)C[C@@H]4O)cc2C3)[nH]1` (relative stereo) [Example 2-33, 6-(7-((trans-1-benzyl-3-hydroxypiperidin-4-yl)amino)-9H-xanthen-4-yl)-4-morpholinopyridin-2(1H)-one] is 100 to 500 nM; for `COc1ccc(CNc2ccc3c(c2)Cc2cccc(-c4cc(N5CCOCC5)cc(=O)[nH]4)c2O3)nc1` [Example 2-2-42, 6-(7-(((5-Methoxypyridin-2-yl)methyl)amino)-9H-xanthen-4-yl)-4-morpholino pyridin-2(1H)-one] it is 100 to 500 nM; for `CN(C)[C@H](CNc1ccc2c(c1)Sc1cccc(-c3cc(N4CCOCC4)cc(=O)[nH]3)c1S2)Cc1ccccc1` [Example 1-2-2, (S)-6-(7-((2-(dimethylamino)-3-phenylpropyl)amino)thianthren-1-yl)-4-morpholinopyridin-2(1H)-one] it is 100 to 500 nM.
Consider `Cc1ccc(C(CCN2CCN(C)CC2)Nc2ccc3c(c2)Sc2cccc(-c4cc(N5CCOCC5)cc(=O)[nH]4)c2S3)nc1` (single isomer, unassigned) [Example 10-3-1, 6-(7-((3-(4-Methylpiperazin-1-yl)-1-(5-methylpyridin-2-yl)propyl)amino)thianthren-1-yl)-4-morpholino pyridin-2 (1H)-one], for which the IC50 was under 100 nM.
The figure for `CN(C)CCN1CCC(Nc2ccc3c(c2)Sc2cccc(-c4cc(N5CCOCC5)cc(=O)[nH]4)c2S3)CC1` [Example 1-29-2, 6-(7-((1-(2-(Dimethylamino)ethyl)piperidin-4-yl)amino)thianthren-1-yl)-4-morpholinopyridin-2(1H)-one] is 100 to 500 nM; for `O=c1cc(N2CCOCC2)cc(-c2cccc3c2Oc2ccc(NCc4cnc5ccccc5c4)cc2C3)[nH]1` [Example 2-2-46, 4-Morpholino-6-(7-((quinolin-3-ylmethyl)amino)-9H-xanthen-4-yl) pyridin-2(1H)-one] it is under 100 nM.
The figure for `CCC(CNc1ccc2c(c1)Sc1cccc(-c3cc(N4CCOCC4)cc(=O)[nH]3)c1S2)N1CCOCC1` (stereo not drawn) [Example 1-9-1, 4-morpholino-6-(7-((2-morpholinobutyl)amino)thianthren-1-yl)pyridin-2(1H)-one] is 100 to 500 nM; for `Cc1cncc(CNc2ccc3c(c2)Cc2cccc(-c4cc(N5CCOCC5)cc(=O)[nH]4)c2O3)c1` [Example 2-2-9, 6-(7-(((5-Methylpyridin-3-yl)methyl)amino)-9H-xanthen-4-yl)-4-morpholino pyridin-2(1H)-one] it is 100 to 500 nM; for `O=c1cc(N2CCOCC2)cc(-c2cccc3c2Sc2ccc(NC4CCCCC4N4CCOCC4)cc2S3)[nH]1` (stereo not drawn) [Example 1-16-2, 4-Morpholino-6-(7-((2-morpholinocyclohexyl)amino)thianthren-1-yl)pyridin-2(1H)-one] it is 100 to 500 nM.
With `O=c1cc(N2CCOCC2)cc(-c2cccc3c2Sc2ccc(NCc4cccnc4)cc2C3)[nH]1` [Example 3-8-1, 4-Morpholino-6-(7-((pyridin-3-ylmethyl)amino)-9H-thioxanthen-4-yl)pyridin-2(1H)-one] the figure was 100 to 500 nM.
`Cc1ccc(C(Nc2ccc3c(c2)Sc2cccc(-c4cc(N5CCOCC5)cc(=O)[nH]4)c2S3)[C@@H]2CCCN2C)nc1` (single isomer, unassigned) [Example 1-56-3]: the IC50 is under 100 nM.
With `CCC(C(=O)Nc1ccc2c(c1)Sc1cccc(-c3cc(N4CCOCC4)cc(=O)[nH]3)c1S2)N1CCOCC1` (stereo not drawn) [Example 1-6-2, 2-Morpholino-N-(6-(4-morpholino-6-oxo-1,6-dihydropyridin-2-yl)thianthren-2-yl)butanamide] the figure was 100 to 500 nM.
The figure for `O=c1cc(N2CCOCC2)cc(-c2cccc3c2Oc2ccc(NC4CCCN(CCc5ccccc5)CC4)cc2S3)[nH]1` (stereo not drawn) [Example 4-6-2, 4-Morpholino-6-(8-((1-phenethylazepan-4-yl)amino)phenoxathiin-4-yl)pyridin-2(1H)-one] is 100 to 500 nM.
Regarding `O=c1cc(N2CCOCC2)cc(-c2cccc3c2Oc2ccc(NCCN4CCOCC4)cc2C3)[nH]1` [Example 2-23-2, 4-Morpholino-6-(7-((2-morpholinoethyl)amino)-9H-xanthen-4-yl)pyridin-2(1H)-one], the IC50 was 500 to 2000 nM.
With `Cc1cnc(C(CC(C)(C)O)Nc2ccc3c(c2)Sc2cccc(-c4cc(N5CCOCC5)cc(=O)[nH]4)c2S3)cn1` (stereo not drawn) [Example 1-12-117, 6-(7-((3-Hydroxy-3-methyl-1-(5-methylpyrazin-2-yl)butyl)amino)thianthren-1-yl)-4-morpholino pyridin-2(1H)-one] the figure was 100 to 500 nM.
With `CN(C)CC(=O)Nc1ccc2c(c1)Sc1cccc(-c3cc(N4CCOCC4)cc(=O)[nH]3)c1S2` [Example 1-7-1, 2-(dimethylamino)-N-(6-(4-morpholino-6-oxo-1,6-dihydropyridin-2-yl)thianthren-2-yl)acetamide] the figure was 500 to 2000 nM; with `N#Cc1ccc(CNc2ccc3c(c2)Sc2cccc(-c4cc(N5CCOCC5)cc(=O)[nH]4)c2S3)s1` [Example 1-12-51, 5-(((6-(4-Morpholino-6-oxo-1,6-dihydropyridin-2-yl)thianthren-2-yl)amino)methyl)thiophene-2-carbonitrile], 100 to 500 nM.
The figure for `COc1ccnc(C(C)Nc2ccc3c(c2)Cc2ccnc(-c4cc(N5CCOCC5)cc(=O)[nH]4)c2O3)c1` (stereo not drawn) [Example 2-41-14] is 100 to 500 nM; for `Cc1cnc(C(CF)Nc2ccc3c(c2)Cc2cccc(-c4cc(N5CCOCC5)cc(=O)[nH]4)c2O3)nc1` (stereo not drawn) [Example 2-14-83, 6-(7-((2-Fluoro-1-(5-methylpyrimidin-2-yl)ethyl)amino)-9H-xanthen-4-yl)-4-morpholino pyridin-2(1H)-one] it is 100 to 500 nM; for `CN1CCC(Nc2ccc3c(c2)Sc2cccc(-c4cc(N5CCOCC5)cc(=O)[nH]4)c2O3)CC1` [Example 4-8-2, 6-(8-((1-Methylpiperidin-4-yl)amino)phenoxathiin-4-yl)-4-morpholino pyridin-2(1H)-one] it is 100 to 500 nM.
In the case of `CC(CNC1CCCCC1)Nc1ccc2c(c1)Sc1cccc(-c3cc(N4CCOCC4)cc(=O)[nH]3)c1S2` (stereo not drawn) [Example 1-13-7, 6-(7-((1-(Cyclohexylamino)propan-2-yl)amino)thianthren-1-yl)-4-morpholino pyridin-2(1H)-one], the IC50 lay in the range of 100 to 500 nM.
In the case of `O=c1cc(N2CCOCC2)cc(-c2cccc3c2Oc2ccc(NCc4cncc(C5CCCC5)c4)cc2C3)[nH]1` [Example 2-2-66, 6-(7-(((5-Cyclopentylpyridin-3-yl)methyl)amino)-9H-xanthen-4-yl)-4-morpholino pyridin-2(1H)-one], the IC50 is under 100 nM.
The figure for `COc1ncccc1CNc1ccc2c(c1)Cc1cccc(-c3cc(N4CCOCC4)cc(=O)[nH]3)c1S2` [Example 3-8-8, 6-(7-(((2-Methoxypyridin-3-yl)methyl)amino)-9H-thioxanthen-4-yl)-4-morpholino pyridin-2 (1H)-one] is 500 to 2000 nM; for `O=C1CCN1c1cncc(CNc2ccc3c(c2)Sc2cccc(-c4cc(N5CCOCC5)cc(=O)[nH]4)c2O3)c1` [Example 4-8-16, 4-Morpholino-6-(8-(((5-(2-oxoazetidin-1-yl)pyridin-3-yl)methyl)amino)phenoxathiin-4-yl)pyridin-2 (IH)-one] it is 100 to 500 nM; for `Cc1cccc(CNc2ccc3c(c2)Cc2cccc(-c4nc(N5CCOCC5)cc(=O)[nH]4)c2O3)n1` [Example 2-52-1, 2-(7-(((6-Methylpyridin-2-yl)methyl)amino)-9H-xanthen-4-yl)-6-morpholino pyrimidine-4(3H)-one] it is 100 to 500 nM.
For the molecule `O=c1cc(N2CCOCC2)cc(-c2cccc3c2Oc2ccc(NC4CCN(Cc5cnccn5)CC4)cc2C3)[nH]1` [Example 2-28-7, 4-Morpholino-6-(7-((1-(pyrazin-2-ylmethyl)piperidin-4-yl)amino)-9H-xanthen-4-yl)pyridin-2 (1H)-one], the IC50 was in the range of 500 to 2000 nM.
As for `COc1cccc(CCN2CCC(Nc3ccc4c(c3)Cc3cccc(-c5cc(N6CCOCC6)cc(=O)[nH]5)c3O4)CC2)c1` [Example 2-30-11, 6-(7-((1-(3-Methoxyphenethyl)piperidin-4-yl)amino)-9H-xanthen-4-yl)-4-morpholino pyridin-2 (1H)-one], the IC50 lay in the range of 100 to 500 nM.
Regarding `Cc1cccc(CCN2CCC(Nc3ccc4c(c3)Cc3cccc(-c5cc(N6CCOCC6)cc(=O)[nH]5)c3O4)CC2)c1` [Example 2-30-8, 6-(7-((1-(3-Methylphenethyl)piperidin-4-yl)amino)-9H-xanthen-4-yl)-4-morpholino pyridin-2 (1H)-one], the IC50 is 500 to 2000 nM.
With `O=c1cc(N2CCOCC2)cc(-c2cccc3c2Oc2ccc(NCCCc4cccnc4)cc2C3)[nH]1` [Example 2-14-14, 4-Morpholino-6-(7-((3-(pyridin-3-yl)propyl)amino)-9H-xanthen-4-yl) pyridin-2(1H)-one] the figure was 100 to 500 nM; with `Nc1ccc2c(c1)Cc1cccc(-c3cc(N4CCOCC4)cc(=O)[nH]3)c1O2` [Example 2-1-1, 5-6-(7-amino-9H-xanthen-4-yl)-4-morpholinopyridin-2(1H)-one], 500 to 2000 nM.
